From US20100267561A1, “HERBICIDAL PYRIDAZINONE DERIVATIVES” (priority 2007, published 2010)

What was measured:
Type in all cases: in vivo
[1] = system: bermudagrass (Cynodon dactylon); test: Test B pre-/postemergence plant response; details: Preemergence; for Bermudagrass plant response rating: 8 g ai/ha
How it was run: (§1)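 Visual scoring from 0 (no effect) to 100 (complete control) against untreated controls was done 13 to 15 days after greenhouse treatment. Chemicals were formulated in a surfactant-containing non-phytotoxic solvent and applied to soil preemergence or to 1- to 4-leaf (2-18 cm) plants postemergence.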

[2] = system: blackgrass (Alopecurus myosuroides); test: Test B pre-/postemergence plant response; details: Preemergence; for Blackgrass plant response rating: 8 g ai/ha
How it was run: as §1

corn (Zea mays) = test: Test B pre-/postemergence plant response; details: Preemergence
How it was run: as §1

[3] = system: eastern black (E.B.) nightshade (Solanum ptycanthum); test: Test B pre-/postemergence plant response; details: Preemergence
How it was run: as §1

[4] = system: giant foxtail (Setaria faberii); test: Test B pre-/postemergence plant response; details: Preemergence
How it was run: as §1

[5] = system: lambsquarters (Chenopodium album); test: Test B pre-/postemergence plant response; details: Preemergence
How it was run: as §1

[6] = system: morningglory (Ipomoea coccinea); test: Test B pre-/postemergence plant response; details: Preemergence; for Morningglory plant response rating: scale 0 to 100
How it was run: as §1

[7] = system: velvetleaf (Abutilon theophrasti); test: Test B pre-/postemergence plant response; details: Preemergence
How it was run: as §1

wild oat (Avena fatua) = test: Test B pre-/postemergence plant response; details: Preemergence
How it was run: as §1

[8] = system: yellow nutsedge (Cyperus esculentus); test: Test B pre-/postemergence plant response; details: Preemergence
How it was run: as §1

[9] = system: barnyardgrass (Echinochloa crus-galli); test: Test B flooded paddy test plant response
How it was run: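 Rice, umbrella sedge, ducksalad and barnyardgrass at 2-leaf stage; pots flooded to 3 cm, compounds applied into paddy water, depth held throughout. Greenhouse 13 to 15 days, then visual rating vs untreated controls on 0–100 scale (0 no effect, 100 complete control); dash means no test result.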

[10] = scale 0 to 100 (0 no effect, 100 complete control)
[11] = 16 g ai/ha, scale 0 to 100 (0 no effect, 100 complete control)
[12] = 31 g ai/ha, scale 0 to 100 (0 no effect, 100 complete control)
[13] = 62 g ai/ha, 0 to 100 scale, 0 no effect, 100 complete control

## Cc1cn(-c2ccc(Cl)cc2)nc1-c1c(O)cnn(C)c1=O [Compound 30, 4-[1-(4-chlorophenyl)-4-methyl-1H-pyrazol-3-yl]-5-hydroxy-2-methyl-3(2H)-pyridazinone]
[1]; Cynodon dactylon, pre-emergence, 16 g ai/ha, scale 0 to 100 (0 no effect, 100 complete control), read-out: Plant response rating, Bermudagrass
  pest or weed control at 16 g/ha: 90%
[1]; Cynodon dactylon, pre-emergence, 31 g ai/ha, 0 to 100 scale, 0 no effect, 100 complete control, read-out: Plant response rating, Bermudagrass
  pest or weed control at 31 g/ha: 100%
[1]; Cynodon dactylon, pre-emergence, 62 g ai/ha, scale 0 to 100, read-out: Plant response rating, Bermudagrass
  pest or weed control at 62 g/ha: 100%
[1]; [10]
  Bermudagrass plant response rating: 60
[2]; Alopecurus myosuroides, pre-emergence, 16 g ai/ha, scale 0 to 100 (0 no effect, 100 complete control), read-out: Plant response rating, Blackgrass
  pest or weed control at 16 g/ha: 60%
[2]; Alopecurus myosuroides, pre-emergence, 31 g ai/ha, 0 to 100 scale, 0 no effect, 100 complete control, read-out: Plant response rating, Blackgrass
  pest or weed control at 31 g/ha: 100%
[2]; Alopecurus myosuroides, pre-emergence, 62 g ai/ha, scale 0 to 100, read-out: Plant response rating, Blackgrass
  pest or weed control at 62 g/ha: 100%
[2]; scale 0 to 100
  Blackgrass plant response rating: 0
Corn (Zea mays); 8 g ai/ha, scale 0 to 100
  Corn plant response rating: 0
Corn (Zea mays); Zea mays, pre-emergence, 16 g ai/ha, scale 0 to 100 (0 no effect, 100 complete control)
  Corn plant response rating (crop injury, 0 = no effect, 100 = complete kill) at 16 g/ha: 5%
Corn (Zea mays); Zea mays, pre-emergence, 31 g ai/ha, 0 to 100 scale, 0 no effect, 100 complete control
  Corn plant response rating (crop injury, 0 = no effect, 100 = complete kill) at 31 g/ha: 5%
Corn (Zea mays); Zea mays, pre-emergence, 62 g ai/ha, scale 0 to 100
  Corn plant response rating (crop injury, 0 = no effect, 100 = complete kill) at 62 g/ha: 5%
[3]; 8 g ai/ha, scale 0 to 100
  Nightshade, E. B. plant response rating: 0
[3]; Solanum, pre-emergence, 16 g ai/ha, scale 0 to 100 (0 no effect, 100 complete control), read-out: Plant response rating, Nightshade, E. B.
  pest or weed control at 16 g/ha: 0%
[3]; Solanum, pre-emergence, 31 g ai/ha, 0 to 100 scale, 0 no effect, 100 complete control, read-out: Plant response rating, Nightshade, E. B.
  pest or weed control at 31 g/ha: 0%
[3]; Solanum, pre-emergence, 62 g ai/ha, scale 0 to 100, read-out: Plant response rating, Nightshade, E. B.
  pest or weed control at 62 g/ha: 0%
[4]; 8 g ai/ha, scale 0 to 100
  Foxtail, Giant plant response rating: 60
[4]; Setaria faberi, pre-emergence, 16 g ai/ha, scale 0 to 100 (0 no effect, 100 complete control), read-out: Plant response rating, Foxtail, Giant
  pest or weed control at 16 g/ha: 98%
[4]; Setaria faberi, pre-emergence, 31 g ai/ha, 0 to 100 scale, 0 no effect, 100 complete control, read-out: Plant response rating, Foxtail, Giant
  pest or weed control at 31 g/ha: 100%
[4]; Setaria faberi, pre-emergence, 62 g ai/ha, scale 0 to 100, read-out: Plant response rating, Foxtail, Giant
  pest or weed control at 62 g/ha: 100%
[5]; Chenopodium album, pre-emergence, 16 g ai/ha, scale 0 to 100 (0 no effect, 100 complete control), read-out: Plant response rating, Lambsquarters
  pest or weed control at 16 g/ha: 0%
[5]; Chenopodium album, pre-emergence, 31 g ai/ha, 0 to 100 scale, 0 no effect, 100 complete control, read-out: Plant response rating, Lambsquarters
  pest or weed control at 31 g/ha: 0%
[5]; Chenopodium album, pre-emergence, 62 g ai/ha, scale 0 to 100, read-out: Plant response rating, Lambsquarters
  pest or weed control at 62 g/ha: 0%
[5]; 8 g ai/ha, scale 0 to 100
  Lambsquarters plant response rating: 0
[6]; Ipomoea, pre-emergence, 16 g ai/ha, scale 0 to 100 (0 no effect, 100 complete control), read-out: Plant response rating, Morningglory
  pest or weed control at 16 g/ha: 0%
[6]; Ipomoea, pre-emergence, 31 g ai/ha, 0 to 100 scale, 0 no effect, 100 complete control, read-out: Plant response rating, Morningglory
  pest or weed control at 31 g/ha: 0%
[6]; 8 g ai/ha
  Morningglory plant response rating: 0
[7]; Abutilon theophrasti, pre-emergence, 16 g ai/ha, scale 0 to 100 (0 no effect, 100 complete control), read-out: Plant response rating, Velvetleaf
  pest or weed control at 16 g/ha: 0%
[7]; Abutilon theophrasti, pre-emergence, 31 g ai/ha, 0 to 100 scale, 0 no effect, 100 complete control, read-out: Plant response rating, Velvetleaf
  pest or weed control at 31 g/ha: 0%
[7]; Abutilon theophrasti, pre-emergence, 62 g ai/ha, scale 0 to 100, read-out: Plant response rating, Velvetleaf
  pest or weed control at 62 g/ha: 0%
[7]; 8 g ai/ha, scale 0 to 100
  Velvetleaf plant response rating: 0
Wild oat (Avena fatua); Avena fatua, pre-emergence, 16 g ai/ha, scale 0 to 100 (0 no effect, 100 complete control), read-out: Plant response rating, Oat, Wild
  pest or weed control at 16 g/ha: 50%
Wild oat (Avena fatua); Avena fatua, pre-emergence, 31 g ai/ha, 0 to 100 scale, 0 no effect, 100 complete control, read-out: Plant response rating, Oat, Wild
  pest or weed control at 31 g/ha: 50%
Wild oat (Avena fatua); Avena fatua, pre-emergence, 62 g ai/ha, scale 0 to 100, read-out: Plant response rating, Oat, Wild
  pest or weed control at 62 g/ha: 80%
Wild oat (Avena fatua); 8 g ai/ha, scale 0 to 100
  Oat, Wild plant response rating: 50
[8]; Cyperus, pre-emergence, 16 g ai/ha, scale 0 to 100 (0 no effect, 100 complete control), read-out: Plant response rating, Nutsedge, Yellow
  pest or weed control at 16 g/ha: 0%
[8]; Cyperus, pre-emergence, 31 g ai/ha, 0 to 100 scale, 0 no effect, 100 complete control, read-out: Plant response rating, Nutsedge, Yellow
  pest or weed control at 31 g/ha: 0%
[8]; Cyperus, pre-emergence, 62 g ai/ha, scale 0 to 100, read-out: Plant response rating, Nutsedge, Yellow
  pest or weed control at 62 g/ha: 0%
[8]; 8 g ai/ha, scale 0 to 100
  Nutsedge, Yellow plant response rating: 0
[9]; Echinochloa crus-galli, Flood (flooded paddy test), 62 g ai/ha, scale 0 to 100, 0 no effect, 100 complete control, read-out: Plant response rating, Barnyardgrass
  pest or weed control at 62 g/ha: 0%
[9]; Echinochloa crus-galli, Flood (flooded paddy test), 125 g ai/ha, scale 0 to 100, 0 no effect, 100 complete control, read-out: Plant response rating, Barnyardgrass
  pest or weed control at 125 g/ha: 0%
[9]; Echinochloa crus-galli, Flood (flooded paddy test), 250 g ai/ha, scale 0 to 100, 0 no effect, 100 complete control, read-out: Plant response rating, Barnyardgrass
  pest or weed control at 250 g/ha: 0%
[9]; Echinochloa crus-galli, Flood, 31 g ai/ha, scale 0 to 100, read-out: Plant response rating, Barnyardgrass
  pest or weed control at 31 g/ha: 0%

## C#CCOC(=O)Oc1cnn(C)c(=O)c1-n1nc(-c2ccc(Cl)cc2)cc1C [Compound 58]
[1]; [10]
  Bermudagrass plant response rating: 100
[1]; [11]
  Plant response rating, Bermudagrass: 100
[1]; [12]
  Plant response rating, Bermudagrass: 100
[1]; [13]
  Plant response rating, Bermudagrass: 100
[2]; [11]
  Plant response rating, Blackgrass: 100
[2]; [12]
  Plant response rating, Blackgrass: 100
[2]; [13]
  Plant response rating, Blackgrass: 100
[2]; scale 0 to 100
  Blackgrass plant response rating: 80
Corn (Zea mays); [12]
  Plant response rating, Corn: 55
Corn (Zea mays); [13]
  Plant response rating, Corn: 80
Corn (Zea mays); 8 g ai/ha, scale 0 to 100
  Corn plant response rating: 0
Corn (Zea mays); 16 g ai/ha, scale 0 to 100
  Corn plant response rating: 0
[3]; [12]
  Plant response rating, Nightshade, E. B.: 0
[3]; [13]
  Plant response rating, Nightshade, E. B.: 0
[3]; 8 g ai/ha, scale 0 to 100
  Nightshade, E. B. plant response rating: 0
[3]; 16 g ai/ha, scale 0 to 100
  Nightshade, E. B. plant response rating: 0
[4]; [12]
  Plant response rating, Foxtail, Giant: 100
[4]; [13]
  Plant response rating, Foxtail, Giant: 100
[4]; 8 g ai/ha, scale 0 to 100
  Foxtail, Giant plant response rating: 55
[4]; 16 g ai/ha, scale 0 to 100
  Foxtail, Giant plant response rating: 95
[5]; [12]
  Plant response rating, Lambsquarters: 95
[5]; [13]
  Plant response rating, Lambsquarters: 100
[5]; 8 g ai/ha, scale 0 to 100
  Lambsquarters plant response rating: 0
[5]; 16 g ai/ha, scale 0 to 100
  Lambsquarters plant response rating: 0
[6]; [12]
  Plant response rating, Morningglory: 0
[6]; [13]
  Plant response rating, Morningglory: 0
[6]; 8 g ai/ha
  Morningglory plant response rating: 0
[6]; 16 g ai/ha
  Morningglory plant response rating: 0
[7]; [12]
  Plant response rating, Velvetleaf: 0
[7]; [13]
  Plant response rating, Velvetleaf: 0
[7]; 8 g ai/ha, scale 0 to 100
  Velvetleaf plant response rating: 0
[7]; 16 g ai/ha, scale 0 to 100
  Velvetleaf plant response rating: 0
Wild oat (Avena fatua); [12]
  Plant response rating, Oat, Wild: 80
Wild oat (Avena fatua); [13]
  Plant response rating, Oat, Wild: 95
Wild oat (Avena fatua); 8 g ai/ha, scale 0 to 100
  Oat, Wild plant response rating: 80
Wild oat (Avena fatua); 16 g ai/ha, scale 0 to 100
  Oat, Wild plant response rating: 80
[8]; [12]
  Plant response rating, Nutsedge, Yellow: 0
[8]; [13]
  Plant response rating, Nutsedge, Yellow: 0
[8]; 8 g ai/ha, scale 0 to 100
  Nutsedge, Yellow plant response rating: 0
[8]; 16 g ai/ha, scale 0 to 100
  Nutsedge, Yellow plant response rating: 0
[9]; Flood (flooded paddy test), 62 g ai/ha, scale 0 to 100, 0 no effect, 100 complete control
  Plant response rating, Barnyardgrass: 30
[9]; Flood (flooded paddy test), 250 g ai/ha, scale 0 to 100, 0 no effect, 100 complete control
  Plant response rating, Barnyardgrass: 70
